Results from patent US12263175B2, “Optimised dosage of diaminophenothiazines in populations” (WisTa Laboratories Ltd., priority 2018, dated 2025).
Several values for one entry are separate records, joined by “and”; a condition that tells them apart may be missing. Identical values can stand only once. Like-named read-outs stand apart in the source and are kept apart here.

What was measured:
bvFTD patients = assay: Phase 3 bvFTD trial: clinical and MRI endpoints by Cmax,ss group; type: in vivo, human
Source text: The trial design for the Phase 3 trial of LMTM in behavioural variant frontotemporal dementia (bvFTD) is described in Examples 3 to 10 of WO2018/041739, which Examples also discuss those results. The disclosure of those Examples is specifically incorporated herein by reference.
(§1) The population PK model described above was used to estimate Cmax of parent MT in the patients in the bvFTD study. As with the AD trials described above, the median value at each dose was taken as a threshold for dividing patients into “High Cmax” and “Low Cmax” groups.
However the decline in the Cmax high group was much reduced (−6.1±1.8). All efficacy analyses are based on an MMRM approach
Alternative efficacy analyses were performed in which the group of patients with minimal systemic exposure to the drug was used as a proxy for placebo. These are shown in the Table EX8 below and illustrated in FIG. 19.
In addition, a linear term was added to permit trends occurring at high concentrations to be included in the model using mean decline occurring at the 200 mg/day dose.

[1] = Population PK model estimate of steady-state parent MT Cmax in AD patients (Studies 005 and 015); type: in vivo, human; details: for Cmax: human, plasma, oral
Source text: This, the PK model was then further developed and simplified to a two compartment model fit to the parent MT concentrations only. This model has a fixed Vc, but the dose-dependent Ka is removed.
This model was derived from Study 036 discussed above. The disposition of parent MT post PO administration of LMTM was adequately described by a two-compartment model with and a delayed absorption occurring through two transit compartments. Apparent oral clearance (CL/F) of parent MT was related to renal function such that a small portion of the variability in parent CL is described by normalized creatinine clearance (CLCRN).
The population PK model was then used to estimate Cmax of parent MT in the patients who received 4 mg or high dose (c. 200 mg/day) in these Phase 3 AD studies. This Bayesian process involved fixing the population mean and inter-individual variability parameters to the estimates from the fit of the population PK model to the steady-state data from Study 036 and allowing the program to select a set of parameters, given those Bayesian priors, which best predicts the parent MT concentrations from Day 1 in each individual.
(§2) That threshold was <0.373 ng/mL.
Higher doses were grouped according to dose (N=187-329 per group).
Since only 65% of patients receiving the 8 mg/day have plasma concentrations above the threshold required for significant treatment benefit, it is desirable to determine the minimum dose at which 100% patients would be expected to have plasma levels within the therapeutic range.

[2] = system: tau transgenic mouse model; assay: Tau transgenic mouse model, spatial learning memory after pre-treatment with symptomatic drugs; type: in vivo
Source text: As is evident from the foregoing, there is a reduction in the maximum effect of LMTM when it is combined with symptomatic treatments. It should be noted however, that this relates to a context in which patients have received LMTM against a background of chronic pre-treatment with symptomatic drugs. The mechanism of this has been elucidated in a series of experiments in a well characterised tau transgenic mouse model.

[3] = Population PK model estimate of steady-state parent MT Cmax in bvFTD trial patients; type: in vivo; details: human, plasma, oral, 8 mg/day, read-out: Cmax,ss cut-off, upper limit of the lowest 35% group
Procedure: as §1
The cut-off that defined the upper limit of the lowest 35% group (corresponding to the percentage of patients with plasma levels below the validated limit of quantitation in Day 1) was 0.346 ng/ml for the bvFTD population.
As for AD (see Example 10) the remainder with Day 1 plasma levels within the validated range of quantitation at the 8 mg/day dose were distributed in 3 groups having approximately equal numbers (22% each; see Table EX7 below).

AD patients = assay: Phase 3 AD studies 005 and 015: clinical and MRI volumetric endpoints by Cmax,ss group; type: in vivo, human; details: for EC50: Homo sapiens, 10920 h, ADAS-cog over 65 weeks, read-out: Cmax,ss concentration required for half-maximal treatment response
Procedure: The trial design for the Phase 3 AD studies “005” and “015” are described in Examples 4 and 3 respectively of WO2018/019823, which Examples also discuss those results. The disclosure of those Examples is specifically incorporated herein by reference. Briefly, those Phase 3 trials compared high doses of LMTM (150-250 mg/day) with a low dose (8 mg/day) intended as a mask for potential urine discolouration (Gauthier 2016; Wilcock 2018).
The results are shown in FIGS. 3a and 3b which show the same data. Patients using symptomatic treatments are labelled “Achmem”.
as §2
A further analysis of ADAS-cog decline over 65 weeks was undertaken using a modified form of the Hill equation (Wagner, 1968) in order to estimate the minimum and maximum plasma concentrations for expected treatment response over 65 weeks. […] In addition, a linear term was added to permit trends occurring at high concentrations to be included in the model using data for doses in the range 150-250 mg/day. The expanded Hill equation was applied to the data in the form: change in parameter=Emin−(Emax*([C]−0.29))/(EC50+([C]−0.29))+(A*([C]−0.29)) where Emin is the imposed zero value, Emax is the maximum treatment effect assumed in the standard Hill equation, EC50 is the Cmax,ss at which the treatment effect is 50% of the maximum assumed in the standard Hill equation and A is a further linear term estimated by the model to take account of a potential biphasic response. […] The dose range in which the treatment response is estimated to be maximal is 20-60 mg/day.

[4] = A. All patients split by Cmax,ss 0.373 ng/mL, over 65 weeks
[5] = B. Patients receiving LMTM, 8 mg/day, over 65 weeks
[6] = LMTM, 8 mg/day, as add-on therapy (AChEI and/or memantine), over 65 weeks
[7] = LMTM, 8 mg/day, as monotherapy, over 65 weeks
[8] = LMTM, 8 mg/day, threshold 0.373 ng/ml, over 65 weeks

For `CN(C)c1ccc2c(c1)Sc1cc(N(C)C)ccc1N2` [LMTM, leuco-methylthioninium bis(hydromethanesulfonate)], the “Lower limiting plasma concentration required for treatment response” value (bvFTD patients; bvFTD patients receiving 8 mg/day, expanded Hill equation) was 0.29 ng/mL, the “Dose-response for high dose monotherapy on functional FAQ scale” value (bvFTD patients; bvFTD, 200 mg/day vs 8 mg/day) was “inverse dose-response” and the “Predicted dose corresponding to the maximum limiting concentration” value (bvFTD patients; bvFTD, whole brain volume over 52 weeks) was 301 mg/day. For the same compound, the “Maximum limiting concentration at which the treatment effect was lost” value (bvFTD patients; bvFTD, whole brain volume over 52 weeks, expanded Hill equation) was 13.57 ng/mL, the “Proportion of subjects above Cmax threshold” value ([1]; 4 mg bid) was 50% and the “Critical therapeutic threshold for Cave,ss” value ([1]; AD patients) was 0.223 ng/mL. For the same compound, the “Critical therapeutic threshold for Cmax,ss” value ([1]; AD patients) was 0.393 ng/mL, the “Patients with plasma concentrations above the threshold required for significant treatment benefit” value ([1]; AD patients receiving 8 mg/day) was 65% and the “Plasma-modelled parent MT Cmax,ss Mean (SD)” value ([1]; AD, studies TRx-237-015 and TRx-237-005, 8 mg/day - Group 2) was 0.393 (0.0125) ng/mL. For the same compound, the “Dose for 100% of patients to have plasma levels in the therapeutic range” value ([1]; AD, QD or BID, either Cmax,ss or Cave,ss criterion) was “at least 16 mg/day”, the “Proportion of subjects achieving Cmax above the median-derived threshold value” ([1]; dosing above 20 mg MT (e.g. as LMTM), depends on number of split doses) was 90 to 100% and the Cmax ([1]; 8 mg/day, AD patients receiving LMTM 8 mg/day, read-out: Cmax,ss threshold, upper limit of the lowest 35% of patients) was < 0.373 ng/mL. It also gave a Cmax ([1]; 8 mg/day, AD, studies TRx-237-015 and TRx-237-005, 8 mg/day - Group 1, read-out: Plasma-modelled parent MT Cmax,ss Range) of 0.257 to 0.373 ng/mL, a Cmax ([1]; 8 mg/day, AD, studies TRx-237-015 and TRx-237-005, 8 mg/day - Group 2, read-out: Plasma-modelled parent MT Cmax,ss Range) of 0.373 to 0.414 ng/mL and a Cmax ([1]; 8 mg/day, AD, studies TRx-237-015 and TRx-237-005, 8 mg/day - Group 3, read-out: Plasma-modelled parent MT Cmax,ss Range) of 0.415 to 0.478 ng/mL. The Cmax ([1]; 8 mg/day, AD, studies TRx-237-015 and TRx-237-005, 8 mg/day - Group 4, read-out: Plasma-modelled parent MT Cmax,ss Range) was 0.479 to 0.812 ng/mL, the Cmax ([1]; 150 mg/day, AD, studies TRx-237-015 and TRx-237-005, 150 mg/day, read-out: Plasma-modelled parent MT Cmax,ss Range) was 5.1 to 18.6 ng/mL and the Cmax ([1]; 200 mg/day, AD, studies TRx-237-015 and TRx-237-005, 200 mg/day, read-out: Plasma-modelled parent MT Cmax,ss Range) was 6.56 to 21.3 ng/mL. For the same compound, the Cmax ([1]; 250 mg/day, AD, studies TRx-237-015 and TRx-237-005, 250 mg/day, read-out: Plasma-modelled parent MT Cmax,ss Range) was 8.83 to 21.2 ng/mL, the “Estimated proportion of subjects above Cmax threshold” value ([1]; ˜20 mg/day (10 mg bid)) was ~100% and the “Effect on spatial learning memory” value ([2]; chronic pre-treatment with rivastigmine) was “elimination of the beneficial effect”. The “Effect on spatial learning memory” value ([2]; pre-treatment with memantine) was “eliminated the effect”, the Cmax [3] was 0.346 ng/mL and the “Predicted treatment effect relative to placebo” value (AD patients; 4 mg bid, over 65 weeks) was ~5 ADAS-cog units. The “ADAS-cog Difference ± SEM, Cmax,ss above vs below 0.373 ng/mL” value (AD patients; [4]) was −2.99 ± 0.67 ADAS-cog units, the “ADCS-ADL Difference ± SEM, Cmax,ss above vs below 0.373 ng/mL” value (AD patients; [4]) was 0.54 ± 0.94 and the “LVV Difference ± SEM, Cmax,ss above vs below 0.373 ng/mL” value (shortened to “LVV Difference ± SEM, Cmax,ss above”) (AD patients; [4]) was −1.52 ± 0.34 cm^3. The “WBV Difference ± SEM, Cmax,ss above vs below 0.373 ng/mL” value (“WBV Difference ± SEM, Cmax,ss above” for short) (AD patients; [4]) was 3.55 ± 1.06 cm^3, the “ADCS-ADL Difference ± SEM, Cmax,ss above vs below 0.373 ng/mL” value (AD patients; [5]) was 1.22 ± 1.01 and the “LVV Difference ± SEM, Cmax,ss above” value (AD patients; [5]) was −1.78 ± 0.38 cm^3. For the same compound, the “WBV Difference ± SEM, Cmax,ss above” value (AD patients; [5]) was 4.39 ± 1.18 cm^3, the EC50 (AD patients; LMTM combined with symptomatic treatments) was 0.4 ± 0.05 ng/mL and the EC50 (AD patients; LMTM monotherapy) was 0.32 ± 0.01 ng/mL. For the same compound, the “ADAS-cog11 Difference ± SEM, Cmax,ss above vs below 0.373 ng/mL” value (AD patients; [6]) was −3.52 ± 0.78, the “ADCS-ADL23 Difference ± SEM, Cmax,ss above vs below 0.373 ng/mL” value (AD patients; [6]) was 1.32 ± 1.04 and the “LVV Difference ± SEM, Cmax,ss above” value (AD patients; [6]) was −1.35 ± 0.37 cm^3. For the same compound, the “WBV Difference ± SEM, Cmax,ss above” value (AD patients; [6]) was 4.69 ± 1.21 cm^3, the “ADAS-cog11 Difference ± SEM, Cmax,ss above vs below 0.373 ng/mL” value (AD patients; [7]) was −2.60 ± 1.16 and the “ADCS-ADL23 Difference ± SEM, Cmax,ss above vs below 0.373 ng/mL” value (AD patients; [7]) was 0.46 ± 1.47. For the same compound, the “LVV Difference ± SEM, Cmax,ss above” value (AD patients; [7]) was −1.46 ± 0.45 cm^3, the “WBV Difference ± SEM, Cmax,ss above” value (AD patients; [7]) was 2.76 ± 1.66 cm^3 and the “ADAS-cog11 Difference ± SEM, low Cmax add-on vs high Cmax monotherapy” value (AD patients; [8]) was −7.53 ADAS-cog11 units and −7.53 ± 1.22 ADAS-cog11 units. For the same compound, the “ADCS-ADL23 Difference ± SEM, low Cmax add-on vs high Cmax monotherapy” value (AD patients; [8]) was 6.14 ± 1.64, the “LVV Difference ± SEM, low Cmax add-on vs high Cmax monotherapy” value (AD patients; [8]) was −3.15 ± 0.62 cm^3 and the “WBV Difference ± SEM, low Cmax add-on vs high Cmax monotherapy” value (AD patients; [8]) was 11.54 ± 1.87 cm^3. The “Dose range in which the treatment response is estimated to be maximal” value (AD patients; expanded Hill equation, ADAS-cog decline over 65 weeks) was 20 to 60 mg/day, the “Reduction of estimated maximum treatment effect when combined with symptomatic treatments, compared with monotherapy” value (AD patients; expanded Hill equation, over 65 weeks) was “about 4 ADAS-cog units” and the “Temporal lobe FDG-PET decline” value (AD patients; high dose LMTM (pooled 200 mg/day)) was “attenuated benefit otherwise seen for LMTM monotherapy”. The “Mean difference between monotherapy and add-on, ADAS-cog change” value (AD patients; pooled 8 mg/day (4 mg bid), Studies 005 and 015, over 65 weeks) was ~4 ADAS-cog units.
